Measurements from patent US20110104177A1, “HISTONE DEACETYLASE INHIBITORS, COMBINATION THERAPIES AND METHODS OF USE” (THE JOHNS HOPKINS UNIVERSITY, priority 2006, published 2011).

What was measured:
[1] = target: T1, SIRT1 (Homo sapiens, UniProt Q96EB6); experiment: Activity against the SIRT1 enzyme / SIRT1 deacetylase activity; type: biochemical
T1 sequence (Q96EB6 1-747): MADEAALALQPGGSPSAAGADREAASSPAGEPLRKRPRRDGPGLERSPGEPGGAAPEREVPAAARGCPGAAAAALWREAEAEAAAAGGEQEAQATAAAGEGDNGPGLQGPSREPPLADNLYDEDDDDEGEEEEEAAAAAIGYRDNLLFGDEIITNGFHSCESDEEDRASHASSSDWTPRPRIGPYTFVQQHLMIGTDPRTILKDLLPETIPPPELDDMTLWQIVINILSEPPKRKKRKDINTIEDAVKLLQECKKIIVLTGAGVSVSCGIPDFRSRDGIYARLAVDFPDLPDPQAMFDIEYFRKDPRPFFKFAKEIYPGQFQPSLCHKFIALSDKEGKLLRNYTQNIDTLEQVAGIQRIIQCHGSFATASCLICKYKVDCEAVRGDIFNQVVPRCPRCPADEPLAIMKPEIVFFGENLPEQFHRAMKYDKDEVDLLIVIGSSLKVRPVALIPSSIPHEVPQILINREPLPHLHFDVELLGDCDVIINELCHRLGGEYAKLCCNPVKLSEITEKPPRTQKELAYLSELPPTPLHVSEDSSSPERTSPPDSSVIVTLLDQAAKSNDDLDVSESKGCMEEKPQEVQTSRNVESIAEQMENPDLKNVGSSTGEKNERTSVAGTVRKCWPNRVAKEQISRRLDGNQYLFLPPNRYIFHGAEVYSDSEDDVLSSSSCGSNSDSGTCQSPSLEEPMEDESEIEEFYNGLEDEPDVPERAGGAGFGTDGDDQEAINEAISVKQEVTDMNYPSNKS

[2] = test system: SFRP1, SFRP2, MLH1, CRBP1, E-cadherin genes in RKO cells; experiment: RT-PCR re-expression of silenced tumor suppressor genes in RKO cells; type: cell-based, human
Description: To inhibit any residual SIRT1 protein, remaining RNAi-expressing cells were treated with 700 μM SPT and control samples were treated with DMSO for 24 hours. […] RKO cells were also treated with 0.5 μM Aza (24 hours), and samples were analyzed as described in FIG. 1A; RT-PCR was performed with intron-spanning primers specific for the two genes. GAPDH was also analyzed as a control. […] Control samples in which no reverse transcriptase was added were analyzed separately, and all were negative for amplification of the indicated genes. […] The level of TSG re-expression induced by Aza treatment or SIRT1 inhibition as described in FIG. 4(A) was compared to levels of expression in HCT116 cells in which the TSGs are basally expressed.
(§1) Cell culture and retroviral infection. MDA-MB-231, MCF7, HCT116, SW480 RKO, and Phoenix cells (ATCC, Rockville, Md., United States) were cultured in Dulbecco's modified Eagle's medium supplemented with 10% fetal bovine serum and 1% penicillin/streptomycin (Invitrogen, Carlsbad, Calif., United States). Retroviral infection was performed using either single or multiple rounds of infection. Briefly, Phoenix cells were transfected with either pBabe, pBabe-SIRT1H363Y, pSUPERretro, pSUPERretro-SIRT1-RNAi-1-3 (NM_012238 positions 410, 589, and 1091; Oligo Engine, Seattle, Wash., United States) using Lipofectamine 2000 (Invitrogen). After 48 h of transfection, the medium containing retrovirus was collected, filtered, and supplemented with Polybrene prior to infection of target cells (MDA-MB-231, MCF7, or HCT116). Infected cells were either harvested 24-48 hours later or subjected to selection with 2-3 μg/ml puromycin for a week prior to harvest and analysis.
(§2) RNA and protein preparation and analysis. Total RNA was extracted (Invitrogen) according to the manufacturer's instructions and subjected to reverse transcription followed by both quantitative real-time and semi-quantitative polymerase chain reaction. For quantitative real-time analyses, the QuantiTect SYBR Green PCR kit (Qiagen, Valencia, Calif., United States) was used and the amplification conditions consisted of an initial 10-minutes denaturation step at 95° C., followed by 40 cycles of denaturation at 95° C. for 15 s and annealing and extension for 30 seconds and 60 seconds, respectively. A BioRad iCycler was used (BioRad, Hercules, Calif., United States), and for quantitation the comparative cycle threshold (Ct) method was used, normalizing the Ct values for the indicated gene to the Ct values of GAPDH relative to a control sample. For conventional PCR, at least two independent sets of intron-spanning primers were used for the analysis of multiple genes, such as CRBP1, (NM_002899), E-cadherin, (L34545), SFRP1, (BC036503), SFRP2, (BC008666), and Gata-4 (L34357). For Western blots, cells stably expressing RNAi constructs were harvested in 50 mM Tris-HCl, 1% NP-40, 0.25% sodium deoxycholate, 150 mM NaCl, 50 mM sodium fluoride, 1 mM dithiothreitol, 1 mM AEBSF, 1× Complete protease inhibitor cocktail (Roche, Basel, Switzerland). Protein concentrations were measured by BCA (Pierce Biotechnology, Rockford, Ill., United States). […] On the same blot, β-actin (Sigma, St. Louis, Mo., United States) was probed to ensure equal loading.
(§3) The results from experiments performed in RKO cells are shown in FIG. 7 which presents RT-PCR results for SFRP1. […] The expression seemed stronger than for 300 μM splitomycin (Spt) or 20 mM nicotinamide (Nia) when these latter two drugs were used alone or in combination, but not as strong as the expression induced by 1 μM of the DNA demethylating agent, deoxy-aza-cytidine (Aza). […] Experiments were carried out as essentially described above.

[3] = test system: SFRP1 and 2 genes in human breast cancer cells (line H231); experiment: Re-activation of SFRP1 and 2 genes in breast cancer cells (line H231); type: cell-based
Description: This has been accomplished for the SFRP1 and 2 genes in human breast cancer cells (line H231) and for SFRP1 in human colon cancer cells (line RKO).
as §3

[4] = test system: SIRT1; experiment: Western blot of SIRT1 protein after retroviral shRNA infection; type: cell-based, human
Description: as §1, §2

[5] = test system: SFRP1 and SFRP2 genes in MCF7 cells; experiment: RT-PCR re-expression of silenced tumor suppressor genes in MCF7 cells; type: cell-based, human; conditions: retroviral infection, RT-PCR
Description: as §1, §2

[6] = test system: SFRP1, SFRP2, E-cadherin, CRBP1 genes in MDA-MB-231 cells; experiment: RT-PCR re-expression of silenced tumor suppressor genes in MDA-MB-231 cells; type: cell-based, human; conditions: MDA-MB-231 cells; shRNA retroviral infection; RT-PCR
Description: The panels of FIG. 2 are as follows. […] MDA-MB-231 cells were treated with 15 mM NIA or 300 μM SPT for 21 hours, RNA was isolated, and RT-PCR was performed with intron-spanning primers specific for the indicated genes. Control samples in which no reverse transcriptase was added were analyzed separately, and all were negative for amplification of the indicated genes. […] MDA-MB-231 cells were treated with either 50 nM Aza (+), 100 μM SPT (+) or with both Aza and SPT (++), and 34 hours later, RT-PCR was performed for the indicated genes as described in FIG. 2(A). […] MDA-MB-231 cells were treated with either 0, 50, 100, or 120 μM SPT alone for 34 hours, or the treatment was followed by treatment with 300 nM TSA for 3 hours prior to RNA isolation and RT-PCR analysis. […] MDA-MB-231 cells were infected with low titers of virus for shRNA specific for SIRT1. Aza (100 nM) was added 24 hours prior to RNA isolation, and RT-PCR analysis was performed for the genes SFRP 1, SFRP2, and GAPDH as described in FIG. 2(A). […] As shown in the left panel, MDA-MB-231 cells were infected with a control (vec) or mutant SIRT1 virus (HY), and RT-PCR was performed as described in FIG. 2(A). MDA-MB-231 cells were infected with low titers of pBabe or pBabe-SIRT1H363Y retrovirus and subsequently treated with 100 nM Aza for 24 hours or with 300 nM TSA for 3 hours prior to harvest, and RT-PCR was performed.
as §1, §2

[7] = test system: E-cadherin and MLH1 protein in MDA-MB-231 and RKO cells; experiment: Western blot of tumor suppressor protein re-expression; type: cell-based, human; conditions: puromycin selection 3 days
Description: The panels in FIG. 1 are as follows. […] Retroviral expression vectors encoding SIRT1 cDNA that produce short hairpin loop RNA targeting either distinct regions of SIRT1 mRNA (RNAi-1, -2, or -3) or a control (ctrl) were used to infect MCF7. Western blot analysis for SIRT1 and β-actin was performed 48 hours after two rounds of infection. […] RNA was isolated from parallel samples analyzed in FIG. 1(A), and RT-PCR was performed with intron-spanning primers specific for the genes SFRP1 and SFRP2. GAPDH was also analyzed as a control. […] Control samples in which no reverse transcriptase was added were analyzed separately, and all were negative for amplification of the indicated genes. […]
RNA and protein preparation and analysis. Total RNA was extracted (Invitrogen) according to the manufacturer's instructions and subjected to reverse transcription followed by both quantitative real-time and semi-quantitative polymerase chain reaction. For quantitative real-time analyses, the QuantiTect SYBR Green PCR kit (Qiagen, Valencia, Calif., United States) was used and the amplification conditions consisted of an initial 10-minutes denaturation step at 95° C., followed by 40 cycles of denaturation at 95° C. for 15 s and annealing and extension for 30 seconds and 60 seconds, respectively. […] Protein concentrations were measured by BCA (Pierce Biotechnology, Rockford, Ill., United States). […]

[8] = test system: SFRP1, SFRP2, GATA4 promoter methylation in MDA-MB-231 cells; experiment: Promoter DNA methylation by bisulfite sequencing and MSP; type: cell-based, human; conditions: MDA-MB-231 cells stably infected
Source text: The panels of FIG. 3 are as follows. […] Parallel samples analyzed in FIG. 1D were subjected to bisulfite sequencing of the SFRP1 promoter from MDA-MB-231 cells stably infected with control vector or RNAi-2 or RNAi-3 retrovirus. Open circles indicate unmethylated cytosines, and closed circles indicate methylated cytosines. Numbers at the bottom show the position of cytosines relative to the transcription start site, which is at position 0, and those with a minus sign (−) are upstream from this start site. The region sequenced encompasses the CpG island in which methylation status correlates with gene expression status. […] From left to right: (−) PCR Ctrl indicates H2O only; (−) BS ctrl indicates bisulfite-treated H20; (+) M ctrl indicates the cell line in which SFRP1 is partially methylated and SFRP2 and GATA4 are fully methylated; and (+) U ctrl indicates the Tera-2 cell line in which each gene is unmethylated. All remaining lanes are for MDA-MB-231. From left to right: Aza indicates 1 μM Aza (24 hours) treatment; Ctrl indicates empty vector infection; RNAi-2 indicates shRNA-2 infection alone; RNAi-3 indicates shRNA-3 infection alone; Aza indicates 1 μM Aza (24 hours treatment of control cells; Ctrl indicates empty vector infection+vehicle; RNAi-2 indicates shRNA-2 infection+5 mM NIA treatment; and RNAi-3 indicates shRNA-3 infection+5 mM NIA treatment.
MSP and bisulfite sequencing. […]

Molecule	inhibition of SIRT1 deactylase activity [1]	SFRP1 expression compared with 1 μM deoxy-aza-cytidine (Aza) ([2]; RKO cells, RT-PCR)	SFRP1 expression compared with 300 μM splitomycin or 20 mM nicotinamide, alone or in combination ([2]; RKO cells, RT-PCR)	SFRP1 RT-PCR specific band ([2]; RKO cells, doses of 20 and 50 μM, 24 or 48 hours)	transcriptional re-activation of SFRP1 and 2 genes [3]	reduction of SIRT1 protein (knockdown) ([4]; MCF7 cells, Western blot 48 h after two rounds of infection)	reduction of SIRT1 protein (knockdown) ([4]; MDA-MB-231 cells)	reduction of SIRT1 protein (knockdown) ([4]; RKO cells)	gene re-expression of SFRP1 and SFRP2 [5]	gene re-expression of SFRP1, SFRP2 and E-cadherin [6]	gene re-expression of CRB1 and E-cadherin ([2]; RKO cells stably expressing shRNA, treated with 700 μM SPT 24 hours, RT-PCR)	gene re-expression of SFRP1, SFRP2 and MLH1 ([2]; RKO cells, shRNA retroviral infection, RT-PCR)	protein re-expression (E-cadherin, MLH1) by Western blot [7]	SFRP1 promoter methylation profile (bisulfite sequencing) [8]
NC(=O)C1CCCCc2c1[nH]c1ccc(Cl)cc21 (centres unmarked) [Compound 6, 2-Chloro-5,6,7,8,9,10-hexahydro-cyclohepta[b]indole-6-carboxylic acid amide]	potent inhibition	not as strong	stronger	produce the band at both time points	the same effects have been achieved	–	–	–	–	–	–	–	–	–
RNAi-3: shRNA targeting SIRT1 mRNA, sequence CATAGACACGCTGGAACAG, NM_012238 position 1091	–	–	–	–	–	greatest knockdown	very effective in reducing protein levels	SIRT1 protein reduction	led to gene re-expression	led to gene re-expression	leads to gene re-expression	leads to gene re-expression of SFRP1, SFRP2, and MLH1	protein re-expression that corresponded with the gene reactivation	without changes in the methylation profile
